Assay results taken from PubChem BioAssay (NCI).
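Grown in 96-well plates, cells were treated for 48 hours with each compound at five concentrations. Insufficient inhibition: endpoint recorded as highest concentration tested. Here, GI50 denotes the concentration required for 50% inhibition of growth. At the TGI there is no net growth.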

Legend:
Assay in all cases: NCI anticancer screen, dose series, 48 h
EKVX NSCLC = tested on: EKVX NSCLC
HOP-92 NSCLC = tested on: HOP-92 NSCLC
NCI-H460 lung = tested on: NCI-H460 lung
OVCAR-8 ovarian = tested on: OVCAR-8 ovarian
SF-268 CNS = tested on: SF-268 CNS
SNB-75 CNS = tested on: SNB-75 CNS
SW-620 colon = tested on: SW-620 colon
UO-31 renal = tested on: UO-31 renal
MDA-MB-231 breast = tested on: MDA-MB-231 breast
MDA-N = tested on: MDA-N

| Compound | TGI (EKVX NSCLC) [µM] | TGI (HOP-92 NSCLC) [µM] | TGI (NCI-H460 lung) [µM] | TGI (OVCAR-8 ovarian) [µM] | TGI (SF-268 CNS) [µM] | TGI (SNB-75 CNS) [µM] | TGI (SW-620 colon) [µM] | TGI (UO-31 renal) [µM] | TGI (MDA-MB-231 breast) [µM] | TGI (MDA-N) [µM] | GI50 (EKVX NSCLC) [µM] | GI50 (HOP-92 NSCLC) [µM] | GI50 (MDA-N) [µM] | GI50 (NCI-H460 lung) [µM] | GI50 (OVCAR-8 ovarian) [µM] | GI50 (SF-268 CNS) [µM] | GI50 (SNB-75 CNS) [µM] | GI50 (SW-620 colon) [µM] | GI50 (UO-31 renal) [µM] | GI50 (MDA-MB-231 breast) [µM] |
| --- | --- | --- | --- | --- | --- | --- | --- | --- | --- | --- | --- | --- | --- | --- | --- | --- | --- | --- | --- | --- |
| CC(=O)Nc1ccc(/C=C/c2ccc(NC(=O)Nc3ccc(/C=C/c4ccc(NC(C)=O)cc4S(=O)(=O)O)c(S(=O)(=O)O)c3)cc2S(=O)(=O)O)c(S(=O)(=O)O)c1 | > 100 | > 75.6 | > 100 | > 100 | > 100 | > 100 | > 100 | > 100 |  |  |  |  |  |  |  |  |  |  |  |  |
| COCc1nc2c(OC)c(-c3nc4nc(N5CCN(C)CC5)ccc4[nH]3)cc(OC)c2n1C | 81.2 | > 100 | 78.8 | > 100 | > 100 | 64.9 | > 100 | 76.9 | 46.4 | > 100 |  |  |  |  |  |  |  |  |  |  |
| CC1CC2=C(S(=O)(=O)c3ccccc3)CC(S(=O)(=O)c3ccccc3)(S(=O)(=O)c3ccccc3)CC21 (stereo not drawn) | > 100 |  | > 100 | > 100 | > 100 | > 100 | > 100 | > 100 |  |  |  |  |  |  |  |  |  |  |  |  |
| COCCCNc1nc(N)c(C#N)c(C#N)c1C#N | > 10 |  | > 10 | > 10 | > 10 | > 10 | > 10 | > 10 | > 10 | > 10 |  |  |  |  |  |  |  |  |  |  |
| CCOC(=O)c1ccc(N[C@@H]2c3cc4c(cc3C(c3cc(OC)c(O)c(OC)c3)[C@H]3C(=O)OCC32)OCO4)cc1O (stereo partly drawn) | > 22.6 | 7.38 | 0.822 | > 21.9 | 25.3 | > 23.2 | > 48.2 | 78.1 |  |  |  |  |  |  |  |  |  |  |  |  |
| CC1CCCCNC1=S (stereo not drawn) | > 10 | > 10 | > 10 | > 10 | > 10 | > 10 | > 10 | > 10 | > 10 | > 10 |  |  |  |  |  |  |  |  |  |  |
| COc1cc2oc(-c3ccc(O)cc3)c(OC)c(=O)c2c(O)c1OC | > 100 | > 100 | > 100 | > 100 | > 100 | > 100 | > 100 | > 100 |  | > 100 | 97 | 43.9 | 25.5 | 41.1 | 86.1 | 79 | 45.2 | > 100 | 42.6 |  |
| CCOC(=O)CNC(=O)N(CC)C12CC3CC(CC(C3)C1)C2 | 358 | 222 | 406 | 417 | 317 | 361 | 297 | 358 |  |  |  |  |  |  |  |  |  |  |  |  |
| COc1ccccc1CNCCCN1C(=O)c2ccc3c4c(ccc(c24)C1=O)C(=O)N(CCCNCCNCCCN)C3=O | 16.3 | 38.8 | 6.47 | 11.7 | 11.6 | 14.8 | 8.91 | 84.5 | > 100 |  | 4.17 | 6.7 |  | 2.08 | 2.08 | 2.13 | 3.07 | 1.74 | 10.8 | 2.09 |
| CCOC(=O)Cn1c(=O)ccn(COCCO)c1=O | > 100 | > 100 | > 100 | > 100 | > 100 | > 100 | > 100 | > 100 | > 100 | > 100 |  |  |  |  |  |  |  |  |  |  |
| COc1ccc(S(=O)(=O)c2ccccc2[N+](=O)[O-])cc1 | > 100 | > 100 | > 100 | > 100 | > 100 | > 100 | > 100 | > 100 |  |  |  |  |  |  |  |  |  |  |  |  |
| C/C(=N/NC(N)=S)c1ccc[nH]1 | > 100 | > 100 | > 100 | > 100 | > 100 | > 100 | > 100 | > 100 | > 100 | > 100 |  |  |  |  |  |  |  |  |  |  |
| CCC(=O)Oc1ccc2c(c1)c(=O)c1c(NCCCN(C)C)ccc3nnn2c31 | 16.6 | 21.3 | 9.23 | 15.1 | 17.2 |  | 13.5 | 5.3 | 19.1 | 18.4 |  |  |  |  |  |  |  |  |  |  |
